The source of these data is patent US11958868B2, “Methods of using metal complexes to promote wound healing” (University of Macau, priority 2022, dated 2024).

The subject of assay [1] is full-thickness skin wounds in leptin-receptor deficient (db/db) diabetic mice. The settings on record: 0.25 mg/mL topical every other day. As to the method: (§1) The db/db and age-matched wide-type (WT) mice were locally administered with vehicle (0.8% w/v Carbopol 974P NF in distilled water, pH 7.0) and 0.25 mg/mL complex 1a (mixed in 0.8% w/v Carbopol 974P NF in distilled water) every other day for 8 days, respectively (FIG. 4a). […] STZ mice were obtained by a single injection of high-dose streptozotocin (150 mg/kg) (Supplementary FIG. 10a). HFD/STZ mice were generated by 8 weeks high-fat diet feeding, followed by low-dose streptozotocin injection for 7 days (40 mg/kg/day) (Supplementary FIG. 11a). 3 days after streptozotocin injection, STZ or HFD/STZ mice with fasting blood glucose levels between 15 and 28 mmol/L were considered as diabetic mice and used in wound healing experiments. STZ and HFD/STZ mice were intraperitoneally injected with either vehicle (PEG 400: distilled water=6:4, v/v) or 1.25 mg/kg complex 1a every other day for 8 days, respectively.
(§2) In the wound healing experiment, two full-thickness skin lesions were excised in interscapular area of each mouse, and the wound area was monitored every other day.
(§3) Male db/db mice were purchased from the Model Animal Research Center of Nanjing University (Nanjing, China). Male C57BL/6J mice were purchased from the animal facility of Faculty of Health Sciences, University of Macau.

For assay [2], the system named is full-thickness skin wounds in high-fat diet-fed, streptozotocin-treated diabetic mice (HFD/STZ). The settings on record: 1.25 mg/kg i.p. every other day. As to the method:
as §1, §2, §3

Assay [3] has as its system full-thickness skin wounds in WT/NC mice. As to the kind of experiment: Skin wound model in normal (WT/NC) mice. The format is in vivo. An excerpt:
(§4) The mice were maintained for 3 days. […] All experiments complied with all relevant ethical regulations.
(§5) Mice were anesthetized by inhalation of 3% isoflurane.

The target in a further assay is T1, PHD2 (Homo sapiens, UniProt Q9GZT9).
T1 construct: detected by Western blotting using either VHL or PHD2 antibodies; endogenous in cells; host or cells: HEK293 cell lysate
As to the kind of experiment: Cellular thermal shift assay (CETSA) in HEK293 cell lysates, PHD2. The format is binding. The settings on record: 3 μM. As to the method:
(§6) HEK293 cells were treated with vehicle DMSO (1% for 2 h), 1a (0.3, 1, 3, 6 and 9 μM for 2 h), VH298 (100 μM for 2 h), MG132 (20 μM for 3 h), or FG-4592 (100 μM for 2 h) before lysis. Cell lysates were collected and incubated with VHL antibody overnight at 4° C. The proteins were immunoprecipitated using agarose beads. The levels of hydroxy-HIF-1α co-precipitated with VHL were detected using a hydroxy-HIF-1α antibody, and then visualized using ECL Western Blotting Detection Reagent (GE Healthcare). (B) Cellular thermal shift assays to monitor cellular target engagement of VHL and HIF-1α. HEK293 cell lysates were treated with 1a (3 μM) at room temperature for 30 min and then heated at different temperature ranging from 48° C. to 68° C. for 5 min. The protein samples were collected and detected by Western blotting using either VHL or PHD2 antibodies. (C) Fluorescence-based protein thermal shift assay of VBC in the presence or absence of VH298 (100 μM) and complex 1a (100 μM). […] Data are expressed as means±SD (n=3 independent experiments for figures a and b, samples for figures c and e), P values were calculated using a two-sided t-test. *P<0.05, **P<0.01 vs. DMSO group.
After incubating HEK293 cell lysates with complex 1a followed by heating to set temperatures, VHL and PHD2 levels in the soluble fraction were quantitated by Western blotting. […]

For assay [4], the target named is T2, human recombinant VHL:ElonginB:ElonginC (VBC) complex (Homo sapiens, UniProt P40337).
T2 construct: made in house
The experiment in a line: Circular dichroism of VBC complex. The class given is binding. The settings on record: 3 μM in 1% DMSO. Background: Circular dichroism is widely used to follow secondary structure.

Assay [5] has as its target T3, His-tagged recombinant VBC protein complex (Homo sapiens, UniProt P40337).
T3 construct: made in house
The experiment in a line: Biolayer interferometry (BLI). The format is binding. To be noted: for Kd: 1:1 interaction, 0.78-12.5 μM. As to the method: as §6, with “μM). (D) ITC titration of complex 1a (300 μM) into recombinant VHL protein (30 μM). ITC experiments were carried in a MicroCal PEAQ-ITC Isothermal Titration Calorimeter (Malvern Panalytical). […] (F) Biolayer interferometry (BLI) kinetic analysis of the interaction between complex 1a and VBC. VBC was surface-immobilized to Ni-NTA biosensors.” for “μM).”
After incubating HEK293 cell lysates with complex 1a followed by heating to set temperatures, VHL and PHD2 levels in the soluble fraction were quantitated by Western blotting.

In assay [6] the test system is HIF-1α activation of the HRE-driven reporter. The experiment in a line: Dual luciferase reporter assay (HRE-driven luciferase activity). The format is cell-based, Human. To be noted: HEK293 cells, 8 h. As to the method:
A library of cyclometalated Ir(III)/Rh(III) metal complexes 1-14 (as racemates) with diverse structures were selected for initial screening, in order to identify favorable substructures for the design of the next round of complexes (FIG. 1a). In cells, HIF-1α moves into the nucleus and binds to the hypoxia-response element (HRE) in the promoters of transactivated genes. In this study, the dual luciferase reporter assay (DLR) was performed to monitor the variations of HRE-driven luciferase activity induced by the complexes (FIG. 1f). Human embryonic kidney HEK293 cells were treated with complexes (10 μM) for 8 h, and the HRE-driven luciferase activity of the cell lysates was determined. Complexes that inhibit the interaction between VHL and HIF-1α would be expected to increase the level of HRE-driven luciferase activity in the cell lysates.
HEK293 cells were seeded in six well plates 24 h before transfection. HRE-luciferase plasmid (4 μg) and pRL-TK plasmid (4 μg) and TurboFect reagent (6 μL) were mixed together in serum-free DMEM medium and the resulting solution was incubated for 20 min at room temperature. The mixture was the added dropwise to the HEK293 cells in the wells. The cells were incubated for 32 h at 37° C. in a CO2 incubator before use.
The inhibition of HIF-1α activity was assayed by a reporter assay using a dual luciferase reporter assay system (Promega, Madison, WI, USA). Transiently transfected cells were treated with complexes or P1 for 8 h before measurement. Luciferase activity was integrated over a 10 second period and measured using a spectrophotometer (Spectra-max M5, Molecular Devices, USA). The results were standardization with the activity of Renilla luciferase. All data are expressed as means±SD.
A general note: Reporter assays use an easily measured gene product as a stand-in for the process of interest.

Assay [7] addresses T2, human recombinant VHL:ElonginB:ElonginC (VBC) complex. As to the kind of experiment: Competitive fluorescence polarization binding assay. Background: In fluorescence polarisation assays a small probe gives low polarisation when free and higher when bound to something large.
Assay [8] deals with full-thickness skin wounds in streptozotocin-induced diabetic mice (STZ). As to the kind of experiment: Skin wound model in STZ diabetic mice, intraperitoneal. The format is in vivo. The settings on record: 1.25 mg/kg i.p. every other day.
From the text: as §4, §5

SMILES strings stand for the structures. Like-named read-outs stand apart in the source and are kept apart here.

By Kd is commonly meant the concentration at which binding is half-saturated. A word on the IC50: it is the point on the concentration scale where inhibition reaches its midpoint.

As for `COc1cc[n+]2c3c1ccc1c(OC)cc[n+](c13)[Ir-3]213([c]2ccccc2-c2cccc[n+]21)[c]1ccccc1-c1cccc[n+]13.F[P-](F)(F)(F)(F)F` [1a], the “Rate of wound closure, db/db mice, 4 days” value in [1] (4 days post-injury) is on record as “about 28%”. In assay [1] (8 days post-injury), the “Rate of wound closure, db/db mice, 8 days” value is recorded as ~40%. Besides, the “Rate of wound closure, HFD/STZ mice, 4 days” value in assay [2] (4 days post-injury) amounted to 62%. In addition, the “Rate of wound closure, HFD/STZ mice, 8 days” value in assay [2] (8 days post-injury) is 82%. Moreover, in assay [3] (NC, 1.25 mg/kg i.p., 4 days), the “Rate of wound closure, NC mice, 4 days” value is given as ~65%. In [3] (WT, 0.25 mg/mL topical, 4 days), the “Rate of wound closure, WT mice, 4 days” value was “about 64%”. In addition, the “Wound closure, WT/NC mice, 8 days” value in [3] (WT/NC, 8 days) is given as “almost complete wound closure”. The “Thermal stabilization of PHD2 (CETSA)” value on PHD2 was “no appreciable effect on the thermal stabilization of PHD2”. Also, in assay [4], the “Circular dichroism signal of VBC complex” value is listed as “distinct shift of the signal”. Further, the “koff (BLI)” value in assay [5] was 0.0352 s⁻¹. Also, the “kon (BLI)” value in assay [5] was found to be 522 M⁻¹ s⁻¹. Moreover, the dissociation constant Kd in assay [5] (read-out: Kd (BLI, kinetic fit)) turned out to be 6.74 ± 0.19 µM; in assay [5] (read-out: Kd (BLI, steady state fit)), 5.8 ± 0.64 µM; in assay [7] (displacement of FAM-DEALAHyp-YIPD from VBC) it was 2.06 µM. In addition, in assay [6], the “HRE-driven luciferase activity compared to positive control P1 (and parent complex 1)” value is recorded as “about twice as potent as both the parent complex 1 as well as the positive control compound P1”. Also, in assay [6] (complexes 1a-1n, ranking and comparison in words), the “HRE-driven luciferase activity, second round of screening” value is “highest activation of HRE-drive luciferase activity”. Also, in [6] (indicated concentrations), the “Dose-response of HRE-driven luciferase activity” value was “dose-dependent activation of HRE-driven luciferase activity”. Moreover, the IC50 in assay [7] (125 nM fluorescent peptide and 450 nM VBC, four-parameter logistic equation) is 3.79 µM. Also, the “Rate of wound closure, STZ mice, 4 days” value in assay [8] (4 days post-injury) amounted to 50%. Besides, in assay [8] (8 days post-injury), the “Rate of wound closure, STZ mice, 8 days” value is reported as 76%.
